Source: US8192962B2, “Processes for detecting toxic substances” (Daikin Industries, Ltd., priority 2001, dated 2012)

Test system: Energy system protein genes
Experiment: DNA chip mRNA expression in yeast, energy system protein genes (Table 4)
Format: cell-based, Saccharomyces cerevisiae S288C
Outline: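 S. cerevisiae S288C grown at 25° C in YPD were exposed in log phase for two hours to one toxic chemical at a growth-inhibiting, non-lethal concentration; untreated cells served as control. Poly(A) mRNA was reverse-transcribed with Cy3/Cy5-dUTP and hybridized to a whole-genome yeast DNA chip at 65° C for over 12 hours; values are fluorescence ratios versus untreated.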

O=[N+]([O-])c1cc[n+]([O-])c2ccccc12 [(5), 4-nitroquinolin-N-oxide]
The level of expressed mRNA in the presence of chemical substance/The level of expressed mRNA in the absence of chemical substance (yeast gene YAL060W): 1.2 | The level of expressed mRNA in the presence of chemical substance/The level of expressed mRNA in the absence of chemical substance (yeast gene YBL058W, cells incubated two hours with the chemical substance): 1.6 | The level of expressed mRNA in the presence of chemical substance/The level of expressed mRNA in the absence of chemical substance (yeast gene YBL099W, cells incubated two hours with the chemical substance): 1.0 | The level of expressed mRNA in the presence of chemical substance/The level of expressed mRNA in the absence of chemical substance (yeast gene YBR001C, cells incubated two hours with the chemical substance): 0.9 | The level of expressed mRNA in the presence of chemical substance/The level of expressed mRNA in the absence of chemical substance (yeast gene YBR185C, cells incubated two hours with the chemical substance): 0.8 | The level of expressed mRNA in the presence of chemical substance/The level of expressed mRNA in the absence of chemical substance (yeast gene YBR221C, cells incubated two hours with the chemical substance): 1.3 | The level of expressed mRNA in the presence of chemical substance/The level of expressed mRNA in the absence of chemical substance (yeast gene YCL040W): 0.5 | The level of expressed mRNA in the presence of chemical substance/The level of expressed mRNA in the absence of chemical substance (yeast gene YCR012W): 1.1 | The level of expressed mRNA in the presence of chemical substance/The level of expressed mRNA in the absence of chemical substance (yeast gene YCR046C, cells incubated two hours with the chemical substance): 1.0 | The level of expressed mRNA in the presence of chemical substance/The level of expressed mRNA in the absence of chemical substance (yeast gene YCR105W, cells incubated two hours with the chemical substance): 0.9 | The level of expressed mRNA in the presence of chemical substance/The level of expressed mRNA in the absence of chemical substance (yeast gene YDL021W): 1.7 | The level of expressed mRNA in the presence of chemical substance/The level of expressed mRNA in the absence of chemical substance (yeast gene YDL067C, cells incubated two hours with the chemical substance): 2.0 | The level of expressed mRNA in the presence of chemical substance/The level of expressed mRNA in the absence of chemical substance (yeast gene YDL078C, cells incubated two hours with the chemical substance): 1.3 | The level of expressed mRNA in the presence of chemical substance/The level of expressed mRNA in the absence of chemical substance (yeast gene YDL107W, cells incubated two hours with the chemical substance): 1.0 | The level of expressed mRNA in the presence of chemical substance/The level of expressed mRNA in the absence of chemical substance (yeast gene YDL174C): 0.5 | The level of expressed mRNA in the presence of chemical substance/The level of expressed mRNA in the absence of chemical substance (yeast gene YDL181W, cells incubated two hours with the chemical substance): 1.7 | The level of expressed mRNA in the presence of chemical substance/The level of expressed mRNA in the absence of chemical substance (yeast gene YDR001C): 1.1 | The level of expressed mRNA in the presence of chemical substance/The level of expressed mRNA in the absence of chemical substance (yeast gene YDR050C, cells incubated two hours with the chemical substance): 0.9 | The level of expressed mRNA in the presence of chemical substance/The level of expressed mRNA in the absence of chemical substance (yeast gene YDR079W, cells incubated two hours with the chemical substance): 1.2 | The level of expressed mRNA in the presence of chemical substance/The level of expressed mRNA in the absence of chemical substance (yeast gene YDR178W, cells incubated two hours with the chemical substance): 0.9 | The level of expressed mRNA in the presence of chemical substance/The level of expressed mRNA in the absence of chemical substance (yeast gene YDR231C): 1.1 | The level of expressed mRNA in the presence of chemical substance/The level of expressed mRNA in the absence of chemical substance (yeast gene YDR298C, cells incubated two hours with the chemical substance): 1.3 | The level of expressed mRNA in the presence of chemical substance/The level of expressed mRNA in the absence of chemical substance (yeast gene YDR377W, cells incubated two hours with the chemical substance): 1.9 | The level of expressed mRNA in the presence of chemical substance/The level of expressed mRNA in the absence of chemical substance (yeast gene YDR529C, cells incubated two hours with the chemical substance): 1.2 | The level of expressed mRNA in the presence of chemical substance/The level of expressed mRNA in the absence of chemical substance (yeast gene YEL024W, cells incubated two hours with the chemical substance): 1.3 | The level of expressed mRNA in the presence of chemical substance/The level of expressed mRNA in the absence of chemical substance (yeast gene YEL039C, cells incubated two hours with the chemical substance): 0.9 | The level of expressed mRNA in the presence of chemical substance/The level of expressed mRNA in the absence of chemical substance (yeast gene YER178W): 0.7 | The level of expressed mRNA in the presence of chemical substance/The level of expressed mRNA in the absence of chemical substance (yeast gene YFL057C): 0.9 | The level of expressed mRNA in the presence of chemical substance/The level of expressed mRNA in the absence of chemical substance (yeast gene YFR053C): 0.9 | The level of expressed mRNA in the presence of chemical substance/The level of expressed mRNA in the absence of chemical substance (yeast gene YGL018C, cells incubated two hours with the chemical substance): 1.1 | The level of expressed mRNA in the presence of chemical substance/The level of expressed mRNA in the absence of chemical substance (yeast gene YGL062W): 0.9 | The level of expressed mRNA in the presence of chemical substance/The level of expressed mRNA in the absence of chemical substance (yeast gene YGL187C, cells incubated two hours with the chemical substance): 1.3 | The level of expressed mRNA in the presence of chemical substance/The level of expressed mRNA in the absence of chemical substance (yeast gene YGL191W, cells incubated two hours with the chemical substance): 0.9 | The level of expressed mRNA in the presence of chemical substance/The level of expressed mRNA in the absence of chemical substance (yeast gene YGL205W, cells incubated two hours with the chemical substance): 1.1 | The level of expressed mRNA in the presence of chemical substance/The level of expressed mRNA in the absence of chemical substance (yeast gene YGL256W, cells incubated two hours with the chemical substance): 0.7 | The level of expressed mRNA in the presence of chemical substance/The level of expressed mRNA in the absence of chemical substance (yeast gene YGR008C): 0.9 | The level of expressed mRNA in the presence of chemical substance/The level of expressed mRNA in the absence of chemical substance (yeast gene YGR043C): 0.9 | The level of expressed mRNA in the presence of chemical substance/The level of expressed mRNA in the absence of chemical substance (yeast gene YGR062C, cells incubated two hours with the chemical substance, 25° C., YPD medium): 0.7 | The level of expressed mRNA in the presence of chemical substance/The level of expressed mRNA in the absence of chemical substance (yeast gene YGR087C, cells incubated two hours with the chemical substance): 1.0 | The level of expressed mRNA in the presence of chemical substance/The level of expressed mRNA in the absence of chemical substance (yeast gene YGR174C, cells incubated two hours with the chemical substance): 1.0 | The level of expressed mRNA in the presence of chemical substance/The level of expressed mRNA in the absence of chemical substance (yeast gene YGR192C): 1.1 | The level of expressed mRNA in the presence of chemical substance/The level of expressed mRNA in the absence of chemical substance (yeast gene YGR244C): 0.8 | The level of expressed mRNA in the presence of chemical substance/The level of expressed mRNA in the absence of chemical substance (yeast gene YGR254W): 1.2 | The level of expressed mRNA in the presence of chemical substance/The level of expressed mRNA in the absence of chemical substance (yeast gene YHR179W): 1.2 | The level of expressed mRNA in the presence of chemical substance/The level of expressed mRNA in the absence of chemical substance (yeast gene YIL160C): 1.0 | The level of expressed mRNA in the presence of chemical substance/The level of expressed mRNA in the absence of chemical substance (yeast gene YIR031C, cells incubated two hours with the chemical substance): 1.6 | The level of expressed mRNA in the presence of chemical substance/The level of expressed mRNA in the absence of chemical substance (yeast gene YJL052W): 0.7 | The level of expressed mRNA in the presence of chemical substance/The level of expressed mRNA in the absence of chemical substance (yeast gene YJL121C, cells incubated two hours with the chemical substance): 1.0 | The level of expressed mRNA in the presence of chemical substance/The level of expressed mRNA in the absence of chemical substance (yeast gene YJL166W, cells incubated two hours with the chemical substance): 1.6 | The level of expressed mRNA in the presence of chemical substance/The level of expressed mRNA in the absence of chemical substance (yeast gene YJL216C, cells incubated two hours with the chemical substance): 0.8
